{"source": "patent US8628767B2", "about": "“Purine nucleoside phosphorylase as enzymatic activator of nucleoside prodrugs” (priority 2008, dated 2014)", "key": {"[1]": {"test_system": "T. vaginalis PNP", "experiment": "Substrate cleavage by wild-type Tv-PNP (HPLC)", "type": "biochemical, Trichomonas vaginalis", "conditions": "for rate of enzymatic cleavage by T. vaginalis PNP: 100 micromolar substrate, HPLC separation of base from nucleoside; for activity of Tv-PNP as compared to wild-type E. coli PNP: summary of Table 1", "description": "(§1) The method quantitatively measures the cleavage of substrates in vitro. The purine analog nucleosides (0.1 mM in 500 μl of 100 mM HEPES, pH 7.4, 50 mM potassium phosphate) are combined with 100 μg/ml Tv-PNP or wild-type E. coli PNP. The reaction mixtures are incubated at 25° C. for 1 hour, and the reactions stopped by boiling each sample for 2 minutes. Protein concentration and time of assay are varied depending on activity of enzyme for a particular substrate. Each sample is analyzed by reverse phase HPLC to measure conversion from substrate to product. The nucleoside and purine analogs are eluted from a Spherisorb ODSI (5 μm) column (Keystone Scientific, Inc., State College, Pa.) with a solvent containing 50 mM ammonium dihydrogen phosphate (95%) and acetonitrile (5%). Products are detected by absorbance at 254 nm, and are identified by comparing their retention times and absorption spectra with authentic control samples.\nNumerous compounds are tested for efficiency as substrate for Tv-PNP in parallel comparison with E. coli PNP. The compounds include various analogs of adenosine, of inosine, of MeP-dR, and of fluoro- or chloro-substituted adenosine. The enzymes are incubated with 100 micromolar of each compound listed in the table and the rate of enzymatic cleavage is determined by HPLC separation of the base from the nucleoside. […] It is appreciated that the greater biological activity of the Tv-PNP enzyme allows for greater activity in impairing abnormal cell growth when the Tv-PNP is used for treatment of pathological conditions using F-araA as a prodrug substrate."}, "[2]": {"target": "E. coli PNP (Escherichia coli, UniProt P0ABP8)", "sequence (P0ABP8 whole entry)": "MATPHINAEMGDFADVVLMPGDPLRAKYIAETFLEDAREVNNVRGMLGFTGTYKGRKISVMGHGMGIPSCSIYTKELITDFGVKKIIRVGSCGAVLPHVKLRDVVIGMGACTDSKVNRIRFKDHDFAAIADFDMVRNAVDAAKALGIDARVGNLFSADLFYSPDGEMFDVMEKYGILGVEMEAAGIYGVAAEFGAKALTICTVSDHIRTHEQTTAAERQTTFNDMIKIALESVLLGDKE", "experiment": "Substrate cleavage by wild-type E. coli PNP (HPLC)", "type": "biochemical", "conditions": "100 micromolar substrate, HPLC separation of base from nucleoside", "description": "as §1\nNumerous compounds are tested for efficiency as substrate for Tv-PNP in parallel comparison with E. coli PNP. […] The enzymes are incubated with 100 micromolar of each compound listed in the table and the rate of enzymatic cleavage is determined by HPLC separation of the base from the nucleoside."}}}
{"compound": "9-β-D-pyranosyl-adenine", "values": [{"measurement": "rate of enzymatic cleavage by T. vaginalis PNP", "setting": "[1]", "result": "2 nanomoles per milligrams per hour"}, {"measurement": "rate of enzymatic cleavage by E. coli PNP", "setting": "[2]", "result": "<1 nanomoles per milligrams per hour"}]}
{"compound": "Nc1nc(Cl)nc2c1ncn2[C@H]1C[C@H](O)[C@@H](CO)O1", "note": "[2-Cl-2′-deoxyadenosine (Cl-dAdo), 2-chloro-2′-deoxyadenosine, reference compound]", "values": [{"measurement": "rate of enzymatic cleavage by T. vaginalis PNP", "setting": "[1]", "result": "352,000 nanomoles per milligrams per hour"}, {"measurement": "rate of enzymatic cleavage by T. vaginalis PNP", "setting": "[1]; listed as Cl-dAdo", "result": "320,000 nanomoles per milligrams per h"}, {"measurement": "activity of Tv-PNP as compared to wild-type E. coli PNP", "setting": "[1]", "result": "more activity"}, {"measurement": "rate of enzymatic cleavage by E. coli PNP", "setting": "[2]", "result": "39,000 nanomoles per milligrams per hour"}, {"measurement": "rate of enzymatic cleavage by E. coli PNP", "setting": "[2]; listed as Cl-dAdo", "result": "39,000 nanomoles per milligrams per h"}]}
{"compound": "Nc1nc(Cl)nc2c1ncn2[C@H]1C[C@H](O)[C@@H](CO)O1", "note": "[2-Cl-2′-deoxyadenosine (α-L), 2-Cl-2′-deoxyadenosine]", "values": [{"measurement": "rate of enzymatic cleavage by T. vaginalis PNP", "setting": "[1]", "result": "<8 nanomoles per milligrams per hour"}, {"measurement": "rate of enzymatic cleavage by E. coli PNP", "setting": "[2]", "result": "<1 nanomoles per milligrams per hour"}]}
{"compound": "Nc1nc(Cl)nc2c1ncn2[C@H]1C[C@H](O)[C@@H](CO)O1", "note": "[2-Cl-2′-deoxyadenosine (β-L), 2-Cl-2′-deoxyadenosine]", "values": [{"measurement": "rate of enzymatic cleavage by T. vaginalis PNP", "setting": "[1]", "result": "<8 nanomoles per milligrams per hour"}, {"measurement": "rate of enzymatic cleavage by E. coli PNP", "setting": "[2]", "result": "<1 nanomoles per milligrams per hour"}]}
{"compound": "Nc1nc(F)nc2c1ncn2[C@H]1C[C@H](O)[C@@H](CO)O1", "note": "[2-F-2′-deoxyadenosine (F-dAdo), 2-fluoro-2′-deoxyadenosine]", "values": [{"measurement": "rate of enzymatic cleavage by T. vaginalis PNP", "setting": "[1]", "result": "400,000 nanomoles per milligrams per hour"}, {"measurement": "rate of enzymatic cleavage by E. coli PNP", "setting": "[2]", "result": "435,000 nanomoles per milligrams per hour"}]}
{"compound": "C[C@H]1O[C@@H](n2cnc3c(N)nc(F)nc32)[C@H](O)[C@@H]1O", "note": "[2-F-5′-deoxy-adenosine, 2-fluoro-5′-deoxyadenosine]", "values": [{"measurement": "rate of enzymatic cleavage by T. vaginalis PNP", "setting": "[1]", "result": "50,000 nanomoles per milligrams per hour"}, {"measurement": "activity of Tv-PNP as compared to wild-type E. coli PNP", "setting": "[1]", "result": "more activity"}, {"measurement": "rate of enzymatic cleavage by E. coli PNP", "setting": "[2]", "result": "29,000 nanomoles per milligrams per hour"}]}
{"compound": "Nc1nc(F)nc2c1ncn2[C@@H]1O[C@H](CO)[C@@H](O)[C@H]1O", "note": "[2-F-adenosine]", "values": [{"measurement": "rate of enzymatic cleavage by T. vaginalis PNP", "setting": "[1]", "result": "185,000 nanomoles per milligrams per hour"}, {"measurement": "rate of enzymatic cleavage by E. coli PNP", "setting": "[2]", "result": "215,000 nanomoles per milligrams per hour"}]}
{"compound": "Nc1ncnc2c1ncn2[C@H]1CC[C@@H](CO)O1", "note": "[2′,3′-dideoxyadenosine]", "values": [{"measurement": "rate of enzymatic cleavage by T. vaginalis PNP", "setting": "[1]", "result": "640 nanomoles per milligrams per hour"}, {"measurement": "rate of enzymatic cleavage by E. coli PNP", "setting": "[2]", "result": "<2 nanomoles per milligrams per hour"}]}
{"compound": "CO[C@@H]1[C@H](O)[C@@H](CO)O[C@H]1n1cnc2c(N)ncnc21", "note": "[2′-O^methyl-adenosine]", "values": [{"measurement": "rate of enzymatic cleavage by T. vaginalis PNP", "setting": "[1]", "result": "<10 nanomoles per milligrams per hour"}, {"measurement": "rate of enzymatic cleavage by E. coli PNP", "setting": "[2]", "result": "<1 nanomoles per milligrams per hour"}]}
{"compound": "OC[C@H]1O[C@@H](n2cnc3c(O)ncnc32)C[C@@H]1O", "note": "[2′-deoxyinosine, reference compound]", "values": [{"measurement": "rate of enzymatic cleavage by T. vaginalis PNP", "setting": "[1]", "result": "660,000 nanomoles per milligrams per hour"}, {"measurement": "rate of enzymatic cleavage by E. coli PNP", "setting": "[2]", "result": "733,000 nanomoles per milligrams per hour"}]}
{"compound": "Nc1ncnc2c1ncn2[C@@H]1O[C@H](CO)C[C@H]1O", "note": "[3′-deoxyadenosine (cordycepin), 3′-deoxyadenosine, reference compound]", "values": [{"measurement": "rate of enzymatic cleavage by T. vaginalis PNP", "setting": "[1]", "result": "2,000 nanomoles per milligrams per hour"}, {"measurement": "rate of enzymatic cleavage by E. coli PNP", "setting": "[2]", "result": "<2 nanomoles per milligrams per hour"}]}
{"compound": "NC[C@H]1O[C@@H](n2cnc3c(N)ncnc32)[C@H](O)[C@@H]1O", "note": "[5′-amino-5′-deoxyadenosine]", "values": [{"measurement": "rate of enzymatic cleavage by T. vaginalis PNP", "setting": "[1]", "result": "4,200 nanomoles per milligrams per hour"}, {"measurement": "rate of enzymatic cleavage by E. coli PNP", "setting": "[2]", "result": "540 nanomoles per milligrams per hour"}]}
{"compound": "NC(=O)[C@H]1O[C@@H](n2cnc3c(N)ncnc32)[C@H](O)[C@@H]1O", "note": "[5′-carboxamide of adenosine]", "values": [{"measurement": "rate of enzymatic cleavage by T. vaginalis PNP", "setting": "[1]", "result": "33 nanomoles per milligrams per hour"}, {"measurement": "rate of enzymatic cleavage by E. coli PNP", "setting": "[2]", "result": "<1 nanomoles per milligrams per hour"}]}
{"compound": "C[C@H]1O[C@@H](n2cnc3c(N)ncnc32)[C@H](O)[C@@H]1O", "note": "[5′-deoxyadenosine]", "values": [{"measurement": "rate of enzymatic cleavage by T. vaginalis PNP", "setting": "[1]", "result": "50,000 nanomoles per milligrams per hour"}, {"measurement": "rate of enzymatic cleavage by E. coli PNP", "setting": "[2]", "result": "8,400 nanomoles per milligrams per hour"}]}
{"compound": "Cc1ncnc2ncn([C@H]3C[C@H](O)[C@H](CO)O3)c12", "note": "[7-[2-deoxy-α-L-lyxofuranosyl]-6-methylpurine]", "values": [{"measurement": "rate of enzymatic cleavage by T. vaginalis PNP", "setting": "[1]", "result": "<8 nanomoles per milligrams per hour"}, {"measurement": "rate of enzymatic cleavage by E. coli PNP", "setting": "[2]", "result": "<1 nanomoles per milligrams per hour"}]}
{"compound": "Nc1nc2ncn([C@@H]3O[C@H](CO)[C@@H](O)[C@H]3O)c2c(=S)[nH]1", "note": "[7-β-D-ribosyl-6-thioguanine]", "values": [{"measurement": "rate of enzymatic cleavage by T. vaginalis PNP", "setting": "[1]", "result": "435 nanomoles per milligrams per hour"}, {"measurement": "rate of enzymatic cleavage by E. coli PNP", "setting": "[2]", "result": "66 nanomoles per milligrams per hour"}]}
{"compound": "O=c1[nH]cnc2ncn([C@@H]3O[C@H](CO)[C@@H](O)[C@H]3O)c12", "note": "[7-β-D-ribosyl-hypoxanthine]", "values": [{"measurement": "rate of enzymatic cleavage by T. vaginalis PNP", "setting": "[1]", "result": "2,300 nanomoles per milligrams per hour"}, {"measurement": "rate of enzymatic cleavage by E. coli PNP", "setting": "[2]", "result": "5,200 nanomoles per milligrams per hour"}]}
{"compound": "Cc1ncnc2c1ncn2[C@@H]1C[C@H](O)[C@@H](CO)O1", "note": "[9-[2-deoxy-α-D-ribofuranosyl]-6-methylpurine]", "values": [{"measurement": "rate of enzymatic cleavage by T. vaginalis PNP", "setting": "[1]", "result": "<8 nanomoles per milligrams per hour"}, {"measurement": "rate of enzymatic cleavage by E. coli PNP", "setting": "[2]", "result": "<1 nanomoles per milligrams per hour"}]}
{"compound": "Cc1ncnc2c1ncn2[C@@H]1O[C@H](C(C)(C)O)[C@@H](O)[C@H]1O", "note": "[9-[5,5-dimethyl-β-D-ribofuranosyl]-6-methylpurine]", "values": [{"measurement": "rate of enzymatic cleavage by T. vaginalis PNP", "setting": "[1]", "result": "<8 nanomoles per milligrams per hour"}, {"measurement": "rate of enzymatic cleavage by E. coli PNP", "setting": "[2]", "result": "<1 nanomoles per milligrams per hour"}]}
{"compound": "Cc1ncnc2c1ncn2[C@@H]1O[C@@H](CI)[C@@H](O)[C@H]1O", "note": "[9-[5-deoxy-5-iodo-α-L-lyxofuranosyl]-6-methylpurine]", "values": [{"measurement": "rate of enzymatic cleavage by T. vaginalis PNP", "setting": "[1]", "result": "<8 nanomoles per milligrams per hour"}, {"measurement": "rate of enzymatic cleavage by E. coli PNP", "setting": "[2]", "result": "<1 nanomoles per milligrams per hour"}]}
{"compound": "Cc1ncnc2c1ncn2[C@@H]1O[C@@H](C)[C@@H](O)[C@H]1O", "note": "[9-[5-deoxy-α-L-lyxofuranosyl]-6-methylpurine]", "values": [{"measurement": "rate of enzymatic cleavage by T. vaginalis PNP", "setting": "[1]", "result": "246 nanomoles per milligrams per hour"}, {"measurement": "rate of enzymatic cleavage by E. coli PNP", "setting": "[2]", "result": "20 nanomoles per milligrams per hour"}]}
{"compound": "Cc1ncnc2c1ncn2[C@@H]1O[C@H](C)[C@@H](O)[C@H]1O", "note": "[9-[5-deoxy-β-D-ribofuranosyl]-6-methylpurine]", "values": [{"measurement": "rate of enzymatic cleavage by T. vaginalis PNP", "setting": "[1]", "result": "3,600 nanomoles per milligrams per hour"}, {"measurement": "rate of enzymatic cleavage by E. coli PNP", "setting": "[2]", "result": "406 nanomoles per milligrams per hour"}]}
{"compound": "Cc1ncnc2c1ncn2[C@@H]1O[C@H]([C@@H](C)O)[C@@H](O)[C@H]1O", "note": "[9-[5-methyl-(allo)-β-D-ribofuranosyl]-6-methylpurine]", "values": [{"measurement": "rate of enzymatic cleavage by T. vaginalis PNP", "setting": "[1]", "result": "223 nanomoles per milligrams per hour"}, {"measurement": "activity of Tv-PNP as compared to wild-type E. coli PNP", "setting": "[1]", "result": "more activity"}, {"measurement": "rate of enzymatic cleavage by E. coli PNP", "setting": "[2]", "result": "47 nanomoles per milligrams per hour"}]}
{"compound": "Cc1ncnc2c1ncn2[C@H]1C[C@H](O)[C@@H]([C@H](C)O)O1", "note": "[9-[5-methyl-(talo)-2-deoxy-β-D-ribofuranosyl]-6-methylpurine]", "values": [{"measurement": "rate of enzymatic cleavage by T. vaginalis PNP", "setting": "[1]", "result": "103,000 nanomoles per milligrams per hour"}, {"measurement": "activity of Tv-PNP as compared to wild-type E. coli PNP", "setting": "[1]", "result": "more activity"}, {"measurement": "rate of enzymatic cleavage by E. coli PNP", "setting": "[2]", "result": "3,600 nanomoles per milligrams per hour"}]}
{"compound": "Nc1ncnc2c1ncn2[C@@H]1O[C@H](CO)[C@@H](O)[C@H]1O", "note": "[Adenosine, reference compound]", "values": [{"measurement": "rate of enzymatic cleavage by T. vaginalis PNP", "setting": "[1]", "result": "501,000 nanomoles per milligrams per hour"}]}
